According to PubChem BioAssay AID489027 (Sanford-Burnham Center for Chemical Genomics, 2010):
Activity calls are given as the source filed them. How the calls were made is not given here.

Target: UPR counterscreen luciferase reporter, luminescence
Assay: activators in UPR counterscreen luciferase reporter, dose response, counter-screen for adaptive UPR activator project, cell-based, luminescence (AID 489027)

Structure (SMILES)	EC50
O=C(/C=C/c1ccccc1)c1ccccc1O	13.2 µM
Cc1ccc(C(=O)N2N=C(c3ccc(Br)cc3)CC2c2ccccc2O)cc1 (stereo not given)	14.3 µM
COc1cc2nc(N3CCN(c4cc(C)ccc4C)CC3)nc(N)c2cc1OC	9.19 µM
CCc1cc2c(=O)c(-c3cnn(-c4ccccc4)c3)c(C)oc2cc1OCC(=O)Nc1cccc(C)c1	11.5 µM
CCc1ccc(-c2cc(C(F)(F)F)n3nc(C(=O)Nc4cnn(Cc5ccc(C)cc5)c4)cc3n2)s1	3.35 µM
CCc1nc(C)cn1S(=O)(=O)c1cc([N+](=O)[O-])ccc1Cl	> 80 µM (inactive)
Cc1cccnc1Nc1nc(-c2ccc(O)c(O)c2)cs1	2.29 µM
CCN(CC)S(=O)(=O)c1ccc(N/N=C(\C)c2ccc3c(c2)OCO3)c([N+](=O)[O-])c1	inactive
C=CCn1c(O)c(C2=c3ccccc3=NC2=O)sc1=Nc1ccc(O)cc1	18.3 µM
Cc1nn(-c2ccccc2)c(C)c1/C=N/NC(=O)CSc1nc2ccccc2c(=O)n1-c1ccc(Br)cc1	7.19 µM
CC1CCc2c(sc(NC(=O)CCc3nc4ccccc4c(=O)[nH]3)c2C#N)C1 (stereo not given)	inactive
COc1ccc(OC)c(Nc2nc(NCc3ccco3)nc(N)c2[N+](=O)[O-])c1	inactive
COc1ccc(-c2nc3scc(-c4ccc(OC)c(OC)c4)c3c(=O)o2)cc1	> 80 µM (inactive)
CCCCCCCCCCn1c2c(c(=N)c3c1CCC3)CCC2	13.5 µM
COc1ccc2c(c1)NC(c1cc(Cl)cc(Cl)c1O)c1cccn1-2 (stereo not given)	inactive
COC(=O)c1c(NC(=O)CC2Nc3ccccc3NC2=O)sc(C)c1C (stereo not given)	inactive
O=[N+]([O-])c1cc(-c2ccc(/C=N/c3nc4ccccn4c3-c3ccco3)o2)ccc1Cl	> 80 µM (inactive)
CCC1(c2ccc(F)cc2)NC(=O)N(CC(=O)Nc2ccc(-c3nc4ccc(C)cc4s3)cc2)C1=O (stereo not given)	> 80 µM (inactive)
CCN(CC)CCn1c(SCC(=O)Nc2ccc(F)cc2)nc2c(sc3ccccc32)c1=O	> 80 µM (inactive)
COc1ccc(OC)c(-c2nnc3n2N=C(c2ccc(OC)c(OC)c2)CS3)c1	> 80 µM (inactive)
COc1ccccc1CCNC(=O)C1CCN(c2nnc(C)c3c(C)n(-c4ccc(C)cc4)nc23)CC1	18.1 µM
O=C(/C=C\c1cn(-c2ccccc2)nc1-c1ccccc1)Nc1nccs1	> 80 µM (inactive)
COc1cc(/C=C2\CC(C(C)(C)C)C/C(=C\c3cc(OC)c(OC)c(OC)c3)C2=O)cc(OC)c1OC (stereo not given)	4 µM
CCOc1cc(/C=N/N=C(/N)c2nonc2N)cc(Br)c1OCc1ccc(Cl)cc1	> 80 µM (inactive)

Structure (SMILES)	EC50
O=C(N/N=C/c1ccc(O)c(O)c1)c1ccc(CSc2cccc3cccnc23)cc1	15.2 µM
O=C1NC(=O)C(=Cc2cn(CCOc3ccc4c(c3)OCO4)c3ccccc23)C(=O)N1	18.5 µM
NS(=O)(=O)c1ccc(N/N=C2/CCCCC2C2CCCCC2)c([N+](=O)[O-])c1 (stereo not given)	15 µM
CCOC(=O)c1c(NC(C)=O)sc2c(OCC(O)CNC(C)(C)C)c(Br)ccc12 (stereo not given)	> 80 µM (inactive)
COc1ccc2c(c1)[nH]c1c(=O)n(/N=C/C3C(C)C=C(C)CC3C)c(=O)[nH]c12 (stereo not given)	inactive
Cc1ccc(C(=O)C(C(=O)/C=C/c2ccccc2)=C2SCCCS2)cc1	11.9 µM
O=C(Oc1ccc(F)cc1C(=O)/C=C/c1cccs1)c1cccc([N+](=O)[O-])c1	inactive
CC1=Nc2ccccc2/C1=C\c1sc(Nc2ccc(C)cc2)nc1O	17.3 µM
COc1ccc2[nH]c3c(c2c1)CCN1C(=O)C(CC(=O)NC/C=C(\C)CCC=C(C)C)C[C@H](C(=O)N(C(C)C)C(C)C)[C@@]31C (stereo not given in full)	inactive
CCOC(=O)c1nnn2c1nc(Nc1cccc(C(F)(F)F)c1)c1ccccc12	10 µM
COc1ccc(-c2cc(=O)oc3c(C)c(OC(=O)c4cccs4)ccc23)cc1	> 80 µM (inactive)
Cc1ccc(Cn2c(C(C)Nc3nc(-c4ccc(F)cc4)cs3)nc3cc(Cl)c(Cl)cc32)cc1 (stereo not given)	inactive
O=c1[nH]c(-c2ccc(-c3cccc(Cl)c3)o2)nc2ccccc12	11.9 µM
COc1ccc(NC(=O)c2cc3c(=O)n(C)c4ccccc4c3n2C)cc1Cl	> 80 µM (inactive)
Cc1nc2ccccc2n1-c1nc(-c2ccco2)cc(C(F)(F)F)n1	11.1 µM
Cc1nn(Cc2ccccc2)c(C)c1NC(=O)CSc1nc(C2CC2)nc2c1cnn2-c1ccccc1	inactive
CCOC(=O)c1c(NC(=O)c2cc3n(n2)C(C(F)(F)F)CC(c2cccs2)N3)sc(C)c1C (stereo not given)	8.7 µM
O=C(CSCc1ccc(Cl)cc1)Nc1ccc(-c2nnc(-c3ccccc3)o2)cc1	> 80 µM (inactive)
C/C(=N\Nc1ncnc2sc(C)c(C)c12)c1ccccn1	2.6 µM
CCC(Sc1nnc2c3ccccc3n(CC)c2n1)C(=O)Nc1sc2c(c1C#N)CCCC2 (stereo not given)	inactive
Cc1cc(NC(=O)CSc2nc3sc(C)c(C)c3c(=O)n2C2CCCC2)no1	> 80 µM (inactive)
CC(NCC(O)COCCC12CC3CC(CC(C3)C1)C2)c1ccccc1 (stereo not given)	> 80 µM (inactive)
CCc1ccc(-c2nc(CN3CCC(C(=O)NCCN(CC)c4ccccc4)CC3)c(C)o2)cc1	> 80 µM (inactive)
Cc1cc(C)c2c(c1)/C(=N/Nc1ccc(S(N)(=O)=O)cc1[N+](=O)[O-])CCC2	> 80 µM (inactive)

Structure (SMILES)	EC50
CCN=C1S/C(=C\c2cn(CC(=O)NCc3ccco3)c3ccccc23)C(=O)N1CC	> 80 µM (inactive)
Cn1c(Cl)cnc1C1CC(=O)c2cc(Cl)ccc2O1 (stereo not given)	12 µM
CC(C)(C)C(=O)NC(=S)NNC(=O)C(c1ccccc1)c1ccccc1	2.14 µM
CCOC(=O)c1c(-c2ccc(C)o2)csc1NC(=O)COC(=O)c1ccc(NC(N)=O)cc1	> 80 µM (inactive)
CCOC(=O)c1nnc(-c2ccc(C)cc2)nc1Sc1cccc(Cl)c1	> 80 µM (inactive)
O=C(N/N=C/c1ccc(Cl)cc1)c1sccc1OCc1ccc(F)cc1	inactive
Cc1ccc2nc(Nc3nc(C)cc(-c4ccccc4)n3)[nH]c(=O)c2c1	> 80 µM (inactive)
O=C(NCc1ccccc1Cl)c1cccc2c1C(=O)c1ccc(-c3ccc(OC(F)(F)F)cc3)cc1S2(=O)=O	9.15 µM
CCCc1nc2c(c(=O)c3ccccc3n2C)c(=O)n1C1CCCCCC1	> 80 µM (inactive)
Cc1cc(NC(=O)c2cc(-c3ccncc3)nc3c(C)cccc23)no1	16 µM
NCCOc1ccc(C23CC4CC(CC(C4)C2)C3)cc1	8.74 µM
CC(C)N(C(=O)[C@H]1C[C@H](CC(=O)NCc2cccc(C(F)(F)F)c2)C(=O)N2CCc3c([nH]c4ccc(Cl)cc34)[C@]12C)C(C)C	inactive
Oc1ccc(CN2CCC(Cc3ccccc3)CC2)c2cccnc12	5.55 µM
Nc1nc(-c2cc(O)ccc2[N+](=O)[O-])cc(-c2ccccc2)c1[N+](=O)[O-]	7.88 µM
CC(C)N(C(=O)[C@H]1C[C@H](CC(=O)NCC23CC4CC(CC(C4)C2)C3)C(=O)N2CCc3c([nH]c4ccc(Cl)cc34)[C@]12C)C(C)C	inactive
Cc1cnc(NC(=O)c2cc(S(=O)(=O)N(C)C)ccc2N2CCCC2)s1	4.67 µM
O=C(Nc1ccc(SC(F)F)cc1)c1cc(-c2ccncc2)nc2ccccc12	> 80 µM (inactive)
COc1ccccc1Nc1nnc(SCC(=O)NC(=O)Nc2ccc3c(c2)OCCO3)s1	> 80 µM (inactive)
Cc1ccc(-c2nnn(CC(=O)Nc3ccc(S(=O)(=O)N4CCC(C)CC4)cc3)n2)cc1	inactive
Cc1ccc(Cn2c(=O)n(-c3ccccc3)c(=O)c3ccc(C(=O)NCc4ccco4)cc32)cc1	> 80 µM (inactive)
COC(=O)c1c(NC(=O)c2nc3ccccc3s2)sc2c1CC(C)(C)NC2(C)C	> 80 µM (inactive)
COc1ccc([N+](=O)[O-])cc1COc1ccc2c(-c3ccccc3)cc(=O)oc2c1	inactive
Nc1nc(Nc2cccc(C(F)(F)F)c2)nc(C(F)(F)F)n1	inactive
N#Cc1cnn2c1nc(N1CCCCC1)c1ccccc12	> 80 µM (inactive)

Structure (SMILES)	EC50
O=C(/C=C/c1ccccc1)NC(NC(=S)Nc1cccc(Cl)c1)C(Cl)(Cl)Cl (stereo not given)	> 80 µM (inactive)
COc1ccc2nc(/C(C#N)=C\c3ccc(Oc4ccc([N+](=O)[O-])cn4)cc3)[nH]c2c1	> 80 µM (inactive)
O=C(CSc1nc2ccccc2c(=O)n1-c1ccccc1)N1CCc2ccccc21	inactive
CCOc1ccccc1-n1c(SCC(=O)Nc2ccc(CC)cc2)nc2n[nH]c(C)c2c1=N	5.3 µM
Cn1nnnc1Sc1ncnc2scc(-c3ccc(Cl)cc3)c12	17.1 µM
O=C(Cc1ccccc1)c1c[nH]c(C(=O)C(Cl)(Cl)Cl)c1	inactive
c1ccc(N=Nc2ccc3cccccc2-3)cc1	11 µM
Cc1cccc(NC(=O)c2nc[nH]c2C(=O)Nc2ccccc2[N+](=O)[O-])c1	> 80 µM (inactive)
Cc1ccc(-c2nnc(-c3ccc(NC(=O)Cc4cccs4)cc3)o2)cc1	> 80 µM (inactive)
C=CCN(CC=C)S(=O)(=O)c1ccc(C(=O)Nc2nc3c(s2)CCc2ccccc2-3)cc1	> 80 µM (inactive)
COc1ccc(C(=O)O/N=C/c2c(C(F)(F)F)nn(C)c2SCc2ccccc2Cl)cc1	inactive
CCCOC(=O)c1cccc(Nc2nc(-c3cccnc3)nc3ccccc23)c1	> 80 µM (inactive)
CCOC(=O)Cc1csc(/N=C/c2c(O)n(-c3ccc(C)c(C)c3)c(=O)c3ccccc23)n1	7.15 µM
O=C(COc1ccc(Cl)cc1Cl)NN=C1c2ccccc2-c2ccccc21	inactive
O=C(NC(=S)Nc1cc(-c2nc3ccccc3[nH]2)ccc1Cl)c1ccc2c(c1)OCO2	8.21 µM
CCc1ccc(NC(=O)C(CC)Sc2nc3cc4c(cc3c(=O)n2Cc2ccco2)OCO4)cc1 (stereo not given)	> 80 µM (inactive)
Oc1ccc(-c2nc3ccc4ccccc4c3c3c2CCC3)cc1O	18 µM
CC(C)(C)C(=O)NC(=S)NNC(=O)c1sc2ccccc2c1Cl	> 80 µM (inactive)
Nc1nc(Nc2cccc(F)c2)nc2ccccc12	inactive
Cc1ccc(C(C(=O)NCc2ccco2)N(C(=O)CNC(=O)c2cccs2)c2c(C)cc(C)cc2C)cc1 (stereo not given)	inactive
NC(=O)CC(NC(=O)Cc1cccc2ccccc12)c1ccc(NCCOc2ccccc2)c([N+](=O)[O-])c1 (stereo not given)	> 80 µM (inactive)
CC1CCCN(c2ccc(C(=O)NCc3cccs3)cn2)C1 (stereo not given)	> 80 µM (inactive)
CCCn1c(SCc2nc3sc(C)c(C)c3c(=O)[nH]2)nc2ccccc2c1=O	> 80 µM (inactive)
